Test results published in patent US8133847B2, “Pyrido[2,3-B]pyrazine derivatives useful as herbicidal compounds” (Syngenta Limited, priority 2006, dated 2012).

Experiments:
Assay type in all cases: in vivo
[1] = test system: Setaria faberi (SETFA); experiment: Example B2 herbicidal action, post-emergence, pots in glasshouse; settings: Application post-emergence, evaluated after 13 days (100=total damage to plant; 0=no damage to plant)
Method: (§1) Seeds of a variety of test species were sown in standard soil in pots. After 8 days cultivation (post-emergence) under controlled conditions in a glasshouse (at 24/16° C., day/night; 14 hours light; 65% humidity), the plants were sprayed with an aqueous spray solution derived from the formulation of the technical active ingredient in acetone/water (50:50) solution containing 0.5% Tween 20 (polyoxyethylene sorbitan monolaurate, CAS RN 9005-64-5). The test plants were then grown in a glasshouse under controlled conditions in a glasshouse (at 24/16° C., day/night; 14 hours light; 65% humidity) and watered twice daily. After 13 days, the test was evaluated (100=total damage to plant; 0=no damage to plant).

[2] = test system: Amaranthus retroflexus (AMARE); experiment: as above; settings: Application post-emergence, evaluated after 13 days (100=total damage to plant; 0=no damage to plant)
Method: as §1

[3] = test system: Echinochloa crusgalli (ECHCG); experiment: as above; settings: Application post-emergence, evaluated after 13 days (100=total damage to plant; 0=no damage to plant)
Method: as §1

[4] = test system: Ipomea hederaceae (IPOHE); experiment: as above; settings: Application post-emergence, evaluated after 13 days (100=total damage to plant; 0=no damage to plant)
Method: as §1

[5] = test system: Solanum nigrum (SOLNI); experiment: as above; settings: Application post-emergence, evaluated after 13 days
Method: as §1

[6] = test system: Nasturtium officinale (NAAOF); experiment: Example B1 herbicidal action, post-emergence, 96-cell seed trays, climatic chamber; set-up: scale not given here; settings: Application post-emergence, 1000 mg/l spray equivalent to 1000 g/ha, evaluated after 9 days (100=total damage to plant, 0=no damage to plant)
Procedure, shortened: (§2)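 Plants at 8–9 days post-sowing (23/17 °C, 13 h light, 50–60% humidity) sprayed post-emergence with 1000 mg/l active ingredient in 10% DMSO, equivalent to 1000 g/ha. Grown on at 24/19 °C, watered twice daily; damage scored after 9 days (0 = none, 100 = total).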

[7] = test system: Amaranthus retroflexus (AMARE); experiment: as above; settings: Application post-emergence, 1000 mg/l spray equivalent to 1000 g/ha, evaluated after 9 days
Procedure, shortened: as §2

[8] = test system: Solanum nigrum (SOLNI); experiment: as above; settings: Application post-emergence, 1000 mg/l spray equivalent to 1000 g/ha, evaluated after 9 days (100=total damage to plant, 0=no damage to plant)
Procedure, shortened: as §2

[9] = test system: Stellaria media (STEME); experiment: as above; settings: Application post-emergence, 1000 mg/l spray equivalent to 1000 g/ha, evaluated after 9 days (100=total damage to plant, 0=no damage to plant)
Procedure, shortened: as §2

Compound | damage to plant, Setaria faberi (SETFA) [1] | damage to plant, Amaranthus retroflexus (AMARE) [2] | damage to plant, Echinochloa crusgalli (ECHCG) [3] | damage to plant, Ipomea hederaceae (IPOHE) [4] | damage to plant, Solanum nigrum (SOLNI) [5] | damage to plant, Nasturtium officinale (NAAOF) [6] | damage to plant, Amaranthus retroflexus (AMARE) [7] | damage to plant, Solanum nigrum (SOLNI) [8] | damage to plant, Stellaria media (STEME) [9]
CCn1c(=O)c(-c2cc(F)ccc2Cl)c(OC(=O)C(C)C)c2nccnc21 [Compound C150] | 6 | 10 | 3 | 9 | 10 | – | – | – | –
Cc1cnc2c(OC(=O)C(C)(C)C)c(-c3c(F)ccc(F)c3Cl)c(=O)n(C)c2n1 [Compound C170] | 7 | 8 | 8 | 4 | 6 | – | – | – | –
Cn1c(=O)c(-c2c(F)ccc(Cl)c2Cl)c(OC(=O)C(C)(C)C)c2nccnc21 [Compound C163] | 0 | 6 | 1 | 9 | 9 | – | – | – | –
Cn1c(=O)c(-c2cc(F)ccc2Cl)c(OC(=O)C(C)(C)C)c2nccnc21 [Compound C143] | 8 | 10 | 7 | 9 | 10 | – | – | – | –
CC(C)(C)C(=O)Oc1c(-c2c(Cl)cc(OC(F)(F)F)cc2Cl)c(=O)[nH]c2nccnc12 [Compound B42] | 8 | 0 | 1 | 0 | 5 | – | – | – | –
CCn1c(=O)c(-c2cc(F)ccc2Cl)c(OC(=O)C(C)(C)C)c2nccnc21 [Compound C151] | 0 | 7 | 0 | 4 | 6 | – | – | – | –
Cn1c(=O)c(-c2c(F)ccc(Br)c2Cl)c(OC(=O)C(C)(C)C)c2nccnc21 [Compound C145] | 0 | 7 | 1 | 6 | 9 | – | – | – | –
O=c1[nH]c2nccnc2c(O)c1-c1c(F)ccc(Br)c1Cl [Compound A40] | 9 | 9 | 5 | 0 | 8 | – | – | – | –
Cn1c(=O)c(-c2ccccc2I)c(OC(=O)C(C)(C)C)c2nccnc21 [Compound C136] | 8 | 9 | 9 | – | 10 | – | – | – | –
CC(C)(C)C(=O)Oc1c(-c2ccc(C(F)(F)F)cc2[N+](=O)[O-])c(=O)[nH]c2nccnc12 [Compound B44] | 0 | 7 | 3 | – | 3 | – | – | – | –
CCCCC(CC)C(=O)Oc1c(-c2c(F)ccc(F)c2Cl)c(=O)n(C)c2nccnc12 (stereo not drawn) [Compound C92] | – | – | – | – | – | 2 | 5 | 7 | 6
CCC(CC)C(=O)Oc1c(-c2c(F)ccc(F)c2Cl)c(=O)n(C)c2nccnc12 [Compound C89] | – | – | – | – | – | 5 | 5 | 4 | 5
CCCC(C)C(=O)Oc1c(-c2c(F)ccc(F)c2Cl)c(=O)n(C)c2nccnc12 (stereo not drawn) [Compound C95] | – | – | – | – | – | 7 | 6 | 5 | 7
